Measured values reported in patent publication US5270313A, “Sulfonamides and uses” (Hoffmann-La Roche Inc., priority 1991, dated 1993).

Legend:
[1] = target: endothelin receptors; test: Inhibition of endothelin binding to human placenta membranes (125I-endothelin); conditions: concentration required to inhibit the specific binding of 125I-endothelin by 50%, 125I-endothelin 20 pM, 20° C. for 2 hours or 4° C. for 24 hours
Protocol: I. Inhibition of endothelin binding to human placenta membranes (see Life Sci 44:1429 (1989)
Human placenta is homogenized in 5 mM Tris buffer, pH 7.4, which contains 1 mM MgCl2 and 250 mM sucrose. The product of the homogenization is centrifuged at 4° C. for 15 minutes at 3000 g. The supernatant containing the plasma membrane fractions is centrifuged for 30 minutes at 72000 g and the precipitate obtained from, in each case, 10 g of original tissue is suspended in 1 ml of 75 mM Tris buffer, pH 7.4, containing 25 mM MgCl2 and 250 mM sucrose and freeze-dried at -20° C. in 1 ml aliquots.
For the binding assay, the freeze-dried membrane preparations are thawed and, after centrifugation at 20° C. for 10 minutes at 25000 g, re-suspended in assay buffer (50 mM Tris buffer, pH 7.4, containing 25 mM MnCl2, 1 mM EDTA and 0.5% bovine serum albumin). 100 μl of this membrane suspension, containing 70 μg of protein, are incubated with 50 μl of ^125 I-endothelin (specific activity 2200 Ci/mMol) in assay buffer (25000 cpm, final concentration 20 pM) and 100 μl of assay buffer which contains varying concentrations of the test compound. The incubation is carried out at 20° C. for 2 hours or at 4° C. for 24 hours. The separation of free and membrane-bound radioligands is carried out by filtration over a glass fiber filter.
The inhibitory activity of compounds of formula I determined in this test procedure is given in Table 1 as the IC50, that is, as the concentration [μM] which is required to inhibit the specific binding of ^125 I-endothelin by 50%.

[2] = test system: endothelin-induced contractions in isolated aorta rings; test: Inhibition of endothelin-induced contractions in isolated aorta rings of the rat; type: cell-based, rat (Wistar-Kyoto); conditions: for Dosage ratio (correcting shift): shift to higher values of the EC50 of endothelin induced by 100 μm of test compound, endothelium removed
Protocol: II. Inhibition of endothelin-induced contractions in isolated aorta rings of the rat
Rings with a thickness of 5 mm were dissected from the thorax aorta of adult Wistar-Kyoto rats. The endothelium was removed by rubbing the internal surface slightly. Each ring was immersed in an isolated bath at 37° C. in 10 ml of Krebs-Henseleit solution while gassing with 95% O2 and 5% CO2. The isometric tension of the rings was measured. The rings were stretched to an initial tension of 3 g. After incubation with the test compound or vehicle for 10 minutes cumulative doses of endothelin-1 were added. The activity of the test compound was determined by calculating the dosage ratio, that is, the correcting shift (shift to higher values) of the EC50 of endothelin induced by 100 μm of test compound, whereby EC50 denotes the endothelin concentration required for a half-maximum contraction. […] The EC50 of endothelin in the absence of test compounds is 0.3 nM.

[3] = test system: vasoconstriction; test: Inhibitory activity on vasoconstriction in vivo in the rat (renal ischemia, renal blood flow); conditions: 10 minutes prior to 45 min renal ischemia, control reduced by 43±4%
Protocol: III. The inhibitory activity of the compounds of formula I on vasoconstriction can be observed in vivo in the rat in the test procedure described hereinafter:
Rats were anaesthetized with Na thiobutabarbital (100 mg/kg i.p.). […] A Doppler probe was placed around the left renal artery and attached to a Doppler measuring device. A renal ischemia was produced by pinching off the left renal artery at its point of emergence for 45 minutes. The test compounds were administered 10 minutes prior to the onset of the ischemia intra-arterially (i.a.) in doses of 5 mg/kg or intraveneously (i.v) in doses of 10 mg/kg. In control experiments, the renal blood flow was reduced by 43±4% in comparison to the pre-ischemic value.

Cc1ccc(-c2c(NS(=O)(=O)c3ccc(C(C)(C)C)cc3)ncnc2OCCO)cc1 [Example 84, p-tert-butyl-N-[6-(2-hydroxyethoxy)-5-p-tolyl-4-pyrimidinyl]benzenesulfonamide]
IC50 [1]: 1 µM
Dosage ratio (correcting shift) [2]: 106

COc1ccc(-c2c(NS(=O)(=O)c3ccc(C(C)C)cc3)ncnc2OCCO)cc1 [Example 54, N-[6-(2-hydroxyethoxy)-5-(p-methoxyphenyl)-4-pyrimidinyl]-p-isopropylbenzene-sulfonamide]
IC50 [1]: 3 µM
Dosage ratio (correcting shift) [2]: 21

O=S(=O)(Nc1ncnc(OCCO)c1-c1ccc(Cl)cc1)c1ccc(C(F)(F)F)cc1 [Example 1, N-[5-(p-chlorophenyl)-6-(2-hydroxyethoxy)-4-pyrimidinyl]-α,α,α-trifluoro-p-toluenesulfonamide]
IC50 [1]: 5 µM
Dosage ratio (correcting shift) [2]: 30
% Decrease in the renal of blood flow ([3]; i.a., 5 mg/kg): 7%

Cc1ccc(-c2c(NS(=O)(=O)c3ccc(C(C)C)cc3)ncnc2OCCO)cc1 [Example 83]
IC50 [1]: 0.7 µM
Dosage ratio (correcting shift) [2]: 86
% Decrease in the renal of blood flow ([3]; i.v., 10 mg/kg): 29%

COc1ccccc1Cc1c(NS(=O)(=O)c2ccc(C(C)(C)C)cc2)ncnc1OCCO [Example 64, p-t-butyl-N-[6-(2-hydroxyethoxy)-5-(o-methoxy-benzyl)-4-pyrimidinyl]benzenesulfonamide]
IC50 [1]: 2 µM
Dosage ratio (correcting shift) [2]: 19

COc1ccccc1Cc1c(NS(=O)(=O)c2ccc(C(C)C)cc2)ncnc1OCCO [Example 63]
IC50 [1]: 1.6 µM
Dosage ratio (correcting shift) [2]: 23

endothelin: endothelin-1, contractile agonist added in cumulative doses to rat aorta rings [reference compound]
EC50 ([2]; in the absence of test compounds, half-maximum contraction): 0.0003 µM

CSc1ccccc1Cc1c(NS(=O)(=O)c2ccc(C(C)C)cc2)ncnc1OCCO [Example 66]
IC50 [1]: 0.5 µM
Dosage ratio (correcting shift) [2]: 96
